Laboratory results from ChEMBL document CHEMBL6182943, “Identification of 4'-Thiouridine as an Orally Available Antiviral Agent Targeting Both RdRp and NiRAN Functions of SARS-CoV-2 Nsp12” (J Med Chem, 2025).
pEC50: −log10 of the molar value. Activity calls are given as the source filed them. No cut-off for these calls is given here.

Columns and labels:
[1] = MRTlast in male ICR mouse at 5 mg/kg, iv measured after 24 hrs by LC-MS/MS analysis; format: ADME, organism-based; conditions: in vivo
Influenza B virus = assay: Antiviral activity against Influenza B virus B/Lee/40 infected in MDCK cells assessed as reduction in virus-induced cytopathic effect incubated for 3 days in presence of TPCK-treated trypsin by MTT assay; format: functional, organism-based; conditions: B/Lee/40, MDCK, 72 h
SARS-CoV-2 [2] = assay: (§1) Antiviral activity against SARS-CoV-2 infected in hACE2 expressing female B6.Cg-Tg(K18-ACE2)2Prlmn/J mouse model assessed as reduction in body weight loss at 50 mg/kg, po preadministered twice daily for 4 days at 8 hrs interval with four hours before and after viral challenge and measured 14 days post viral challenge; format: functional, organism-based; conditions: Severe acute respiratory syndrome coronavirus 2, time 14.0 day
[3] = Cytotoxicity against MDCK cells assessed as reduction in cell viability incubated for 3 days by MTT assay; format: toxicity, cell-based, Canis lupus familiaris; conditions: dog, time 3 day
rhinovirus B14 = assay: Antiviral activity against Human rhinovirus B14 infected in human H1-HeLa cells incubated for 72 hrs; format: functional, organism-based; conditions: Rhinovirus B
Zaire ebolavirus = assay: Antiviral activity against Zaire Ebola virus infected in HEK293T cells transfected with viral replication protein and Renilla luciferase pre-infected for 4 hrs followed by compound addition and measured after 48 hrs by Dual-luciferase reporter assay; format: functional, organism-based; conditions: HEK-293T
SARS-CoV-2 [4] = assay: (§2) Antiviral activity against SARS-CoV-2 infected in african green monkey Vero cells assessed as reduction in number of spike-protein expressing cells at 30 uM pre-infected for 30 mins followed by compound addition and measured 48 hrs post-infection by DAPI staining based immunofluorescence analysis relative to control; format: functional, Severe acute respiratory syndrome coronavirus 2; set-up: scale not given: the % may be the effect or the level left; conditions: time 47.5 hrs
[5] = MRTlast in male ICR mouse at 10 mg/kg, po measured after 24 hrs by LC-MS/MS analysis; format: ADME, organism-based; conditions: in vivo
SARS-CoV-2 [6] = assay: as §1, with “100” for “50”, “9” for “14”; format: functional, organism-based; conditions: Severe acute respiratory syndrome coronavirus 2, time 9.0 day
SARS-CoV-2 [7] = assay: as §2, with “SARS-CoV-2 Gamma (hCoV-19/Korea95637/KDCA/2021)” for “SARS-CoV-2”, “human Calu-3” for “african green monkey Vero”, “cells” for “cells at 30 uM”; format: functional, organism-based; conditions: Severe acute respiratory syndrome coronavirus 2, Gamma (hCoV-19/Korea95637/KDCA/2021)
SARS-CoV-2 [8] = assay: Antiviral activity against SARS-CoV-2 infected in african green monkey Vero cells assessed as nuclear occupancy at 30 uM pre-infected for 30 mins followed by compound addition and measured 48 hrs post-infection by DAPI staining based immunofluorescence analysis relative to control; format: functional, Severe acute respiratory syndrome coronavirus 2; conditions: time 47.5 hrs
[9] = Clearance in male ICR mouse at 5 mg/kg, iv measured after 24 hrs by LC-MS/MS analysis; format: ADME, organism-based; conditions: in vivo
[10] = system: Middle East respiratory syndrome-related coronavirus; assay: Antiviral activity against MERS-CoV KOR/KNIH/002_05_2015 infected in human Huh-7 cells assessed as inhibition of virus-induced cytopathic effect measured 2 to 7 days post infection by MTT-based cell viability assay; format: functional, organism-based; conditions: KOR/KNIH/002_05_2015, Huh-7
SARS-CoV-2 [11] = assay: as §1, with “100” for “50”; format: functional, organism-based; conditions: Severe acute respiratory syndrome coronavirus 2, time 14.0 day
SARS-CoV-2 [12] = assay: as §2, with “SARS-CoV-2 Omicron (hCoV-19/Korea/KDCA447321/2021)” for “SARS-CoV-2”, “human Calu-3” for “african green monkey Vero”, “cells” for “cells at 30 uM”; format: functional, organism-based; conditions: Severe acute respiratory syndrome coronavirus 2, Omicron (hCoV-19/Korea/KDCA447321/2021)
SARS-CoV-2 [13] = assay: Antiviral activity against SARS-CoV-2 infected in African green monkey Vero cells assessed as reduction in viral RNA copy number at 0.1 to 10 uM measured after 1 day by qRT-PCR analysis; format: functional, organism-based; conditions: Severe acute respiratory syndrome coronavirus 2, dose 0.1-10 µM
Influenza A virus = assay: Antiviral activity against Influenza A virus A/Hong Kong/8/68 (H3N2) infected in MDCK cells assessed as reduction in virus-induced cytopathic effect incubated for 3 days in presence of TPCK-treated trypsin by MTT assay; format: functional, organism-based; conditions: 72 h
Human coronavirus NL63 = assay: Antiviral activity against HCoV-NL63 infected in LLC-MK2 cells assessed as inhibition of virus-induced cytopathic effect measured 2 to 7 days post infection by MTT-based cell viability assay; format: functional, organism-based
[14] = Terminal half-life in male ICR mouse at 5 mg/kg, iv measured after 24 hrs by LC-MS/MS analysis; format: ADME, organism-based; conditions: in vivo, read-out: beta t1/2 (converted)
[15] = MRTinfinity in male ICR mouse at 5 mg/kg, iv measured after 24 hrs by LC-MS/MS analysis; format: ADME, organism-based; conditions: in vivo
[16] = Cytotoxicity against human Huh-7 cells assessed as reduction in cell viability by MTT-based cell viability assay; format: toxicity
SARS-CoV-2 [17] = assay: as §2, with “SARS-CoV-2 Wuhan-like (hCoV-19/Korea/KCDC06/2020)” for “SARS-CoV-2”, “human Calu-3” for “african green monkey Vero”, “cells” for “cells at 30 uM”; format: functional, organism-based; conditions: Severe acute respiratory syndrome coronavirus 2, Wuhan-like (hCoV-19/Korea/KCDC06/2020)
SARS-CoV-2 [18] = assay: Antiviral activity against SARS-CoV-2 infected in hACE2 expressing female B6.Cg-Tg(K18-ACE2)2Prlmn/J mouse model assessed as survival rate at 100 mg/kg, po preadministered twice daily for 4 days at 8 hrs interval with four hours before and after viral challenge and measured 14 days post viral challenge relative to control; format: functional; conditions: Severe acute respiratory syndrome coronavirus 2, 336 h, time 14 day
dengue virus type 2 = assay: Antiviral activity against Dengue virus 2 infected in BHK-21 cells transfected with Renilla luciferase tagged viral subgenomic replicon incubated for 48 hrs by luciferase based assay; format: functional, organism-based; conditions: BHK-21, 48 h
[19] = Cytotoxicity against human Calu-3 cells assessed as reduction in cell viability incubated for 48 hrs by MTT assay; format: toxicity, cell-based
SARS-CoV-2 [20] = assay: Antiviral activity against SARS-CoV-2 infected in african green monkey Vero cells assessed as reduction in number of spike-protein expressing cells pre-infected for 30 mins followed by compound addition and measured 48 hrs post-infection by DAPI staining based immunofluorescence analysis; format: functional, organism-based; conditions: Severe acute respiratory syndrome coronavirus 2, Vero
[21] = Cytotoxicity against African green monkey Vero cells assessed as reduction in cell viability incubated for 48 hrs by MTT assay; format: toxicity, cell-based; conditions: chlorocebus sabaeus
[22] = Oral bioavailability in male ICR mouse at 10 mg/kg measured after 24 hrs by LC-MS/MS analysis; format: ADME, organism-based; conditions: in vivo
SARS-CoV-2 [23] = assay: as §2, with “SARS-CoV-2 Delta (hCoV-19/Korea/KDCA119861/2021)” for “SARS-CoV-2”, “human Calu-3” for “african green monkey Vero”, “cells” for “cells at 30 uM”; format: functional, organism-based; conditions: Severe acute respiratory syndrome coronavirus 2, Delta (hCoV-19/Korea/KDCA119861/2021)
[24] = Tmax in male ICR mouse at 10 mg/kg, po measured after 24 hrs by LC-MS/MS analysis; format: ADME, organism-based; conditions: in vivo
[25] = Cytotoxicity against HEK293T cells assessed as reduction in cell viability measured after 48 hrs by MTT assay; format: toxicity, cell-based, HEK-293T; conditions: human
[26] = Cmax in male ICR mouse at 10 mg/kg, po measured after 24 hrs by LC-MS/MS analysis; format: ADME, organism-based; conditions: in vivo
SARS-CoV-2 [27] = assay: Antiviral activity against SARS-CoV-2 infected in African green monkey Vero cells assessed as reduction in viral N protein level measured after 1 day by Western blot analysis; format: functional, organism-based; conditions: Severe acute respiratory syndrome coronavirus 2, dose 0.1-10 µM
[28] = Cytotoxicity against rhesus monkey LLC-MK2 cells assessed as reduction in cell viability by MTT-based cell viability assay; format: toxicity, Macaca mulatta
[29] = AUClast in male ICR mouse at 5 mg/kg, iv measured after 24 hrs by LC-MS/MS analysis; format: ADME, organism-based; conditions: in vivo
[30] = AUCinfinity in male ICR mouse at 10 mg/kg, po measured after 24 hrs by LC-MS/MS analysis; format: ADME, organism-based; conditions: in vivo
SARS-CoV-2 [31] = assay: Antiviral activity against SARS-CoV-2 infected in African green monkey Vero cells assessed as reduction in viral N protein level at 1 to 10 uM measured after 1 day by Western blot analysis relative to control; format: functional, Severe acute respiratory syndrome coronavirus 2; set-up: scale not given: the % may be the effect or the level left; conditions: dose 1-10 µM
[32] = Terminal half-life in male ICR mouse at 10 mg/kg, po measured after 24 hrs by LC-MS/MS analysis; format: ADME, organism-based; conditions: in vivo, read-out: beta t1/2 (converted)
Influenza A virus (H1N1) = assay: Antiviral activity against Influenza A virus A/Puerto Rico/8/34 (H1N1) infected in MDCK cells assessed as reduction in virus-induced cytopathic effect incubated for 3 days in presence of TPCK-treated trypsin by MTT assay; format: functional, organism-based; conditions: 72 h
[33] = MRTinfinity in male ICR mouse at 10 mg/kg, po measured after 24 hrs by LC-MS/MS analysis; format: ADME, organism-based; conditions: in vivo
[34] = Cytotoxicity against golden hamster BHK-21 cells assessed as reduction in cell viability by MTT assay; format: toxicity, cell-based, Mesocricetus auratus
[35] = Cytotoxicity against human H1-HeLa cells assessed as reduction in cell viability incubated for 72 hrs; format: toxicity, cell-based
[36] = AUClast in male ICR mouse at 10 mg/kg, po measured after 24 hrs by LC-MS/MS analysis; format: ADME, organism-based; conditions: in vivo
[37] = AUCinfinity in male ICR mouse at 5 mg/kg, iv measured after 24 hrs by LC-MS/MS analysis; format: ADME, organism-based; conditions: in vivo

For `O=c1ccn([C@@H]2S[C@H](CO)[C@@H](O)[C@H]2O)c(=O)[nH]1`, the MRT last at 24 h [1] was 7.16 h, the pEC50 (Influenza B virus) was 4.69 and the Activity (SARS-CoV-2 [2]) was “inactive”. The CC50 at 72 h [3] was greater than 100 µM, the pEC50 (rhinovirus B14) was 4.63 and the pEC50 (Zaire ebolavirus) was 4.48. For the same compound, the Activity (SARS-CoV-2 [4]) was greater than 80%, the MRT last at 24 h [5] was 6.84 h and the Activity (SARS-CoV-2 [6]) was “Active”. The pEC50 (SARS-CoV-2 [7]) was 5.46, the Activity (SARS-CoV-2 [8]) was greater than 80% and the clearance [9] was 4.17 mL/min/kg. The pEC50 [10] was 5.39, the Activity (SARS-CoV-2 [11]) was “Active” and the pEC50 (SARS-CoV-2 [12]) was 5.58. The Activity (SARS-CoV-2 [13]) was “Active”, the pEC50 (Influenza A virus) was 4.82 and the pEC50 (Human coronavirus NL63) was 5.34. It also gave a half-life [14] of 8.87 h, an MRT inf [15] of 11.4 h and a CC50 [16] greater than 100 µM. The pEC50 (SARS-CoV-2 [17]) was 5.39, the survival at 100 mg/kg (SARS-CoV-2 [18]) was 40% and the pEC50 (dengue virus type 2) was 4.38. For the same compound, the CC50 at 48 h [19] was greater than 100 µM, the pEC50 (SARS-CoV-2 [20]) was 5.77 and the CC50 at 48 h [21] was greater than 100 µM. For the same compound, the bioavailability [22] was 109%, the pEC50 (SARS-CoV-2 [23]) was 5.12 and the Tmax [24] was 1 h. The CC50 at 48 h [25] was 81.1 µM, the Cmax [26] was 4980 ng/mL and the Activity (SARS-CoV-2 [27]) was “Dose-dependent-effect”. For the same compound, the CC50 [28] was greater than 100 µM, the AUC(0-t) at 24 h [29] was 17500 ng·h/mL and the AUC(0-inf) [30] was 43600 ng·h/mL. It also gave an Activity (SARS-CoV-2 [31]) of 100%, a half-life [32] of 8.2 h and a pEC50 (Influenza A virus (H1N1)) of 4.87. It also gave an MRT inf [33] of 10.5 h, a CC50 [34] of 93.7 µM and a CC50 at 72 h [35] greater than 100 µM. It also gave an AUC(0-t) at 24 h [36] of 38000 ng·h/mL and an AUC(0-inf) [37] of 20500 ng·h/mL.
